Reference: patent publication US10138384B2, “Ophthalmic and contact lens solutions using bicine” (priority 2000, dated 2018)
Where a name gives a salt, the structure may show the parent alone.

Tests used:
radio-labeled lysozyme = details: 1 percent w/v in phosphate buffer, 12 hours at 37 degrees Celsius
Experimental: Contact lenses were soaked and heated in test solutions to which a radio-labeled lysozyme was present in a known amount for a period of 12 hours at 37 degrees Celsius. The lenses were rinsed with distilled water in order to remove residual solution. The lenses were then assayed for protein deposition using a Beckman BioGamma I counter. Results were reported in ug/lens.
Choline chloride was a 1 percent w/v solution. The matrix control was phosphate buffer and sodium chloride.

[1] = Reduced preservative binding to contact lenses (radio-labeled C14-PHMB, gamma counter); details: 1 percent w/v in phosphate buffer, 12 hours at 37 degrees C; for Preservative (C14-PHMB) binding, Average: average of lens A and B
Excerpt: Results were reported in ug/lens. […] The control was phosphate buffer and sodium chloride.

lysozyme = test: Protein deposition inhibition on contact lenses (lysozyme, BCA method); details: lenses soaked overnight in test solution (additives 1 percent w/v in phosphate buffer), then lysozyme 37 degrees C for 12 hours
Experimental: Contact lenses were soaked test solutions overnight. Afterwards, lysozyme was added to the tubes and warmed to 37 degrees C. for 12 hours. […] The lenses were assayed for protein deposition by the BCA method and detected on an HP PDA Spectrophotometer. Results were reported in ug/lens. […] The control was phosphate buffer and sodium chloride.

C. albicans [2] = test: In vitro microbicidal activity, 0.2% phosphate buffer with PHMB (Example 4); format: cell-based; details: pH 7.2
C. albicans [3] = test: In vitro microbicidal activity, 0.1% phosphate buffer with PHMB and hydrogen peroxide (Example 3B); format: cell-based; details: additive 1%, PHMB 0.0001%, hydrogen peroxide 0.0060%; for C albicans log reduction: pH 7.0, 4 hours at room temperature; for Improvement (log reduction versus buffer control): pH 7.0, 4 hours, buffer control 0.41
Experimental: The solutions were made isotonic with sodium chloride and preserved with polyhexamethylene biquanide at 0.0001% and hydrogen peroxide at 0.0060%. Dequest […] was added as a stabilizer. The pH was adjusted to 7.0 with either 1 N sodium hydroxide. […] Subsequently, an aliquot of each solution was serial diluted onto agar plates and incubated for 48 hours at elevated temperatures. At the conclusion of the incubation period the plates are examined for the development of colonies. The log reduction was determined based on a comparison to the inoculum control. The following table provides the results of the in vitro studies.

[4] = additive 0.5%, 0.2% phosphate buffer, PHMB 0.0001%, 4 hours at room temperature
[5] = additive 0.5%, 0.2% phosphate buffer, PHMB 0.0001%, 4 hours, buffer control 0.99

SMILES | Preservative (C14-PHMB) binding, Average [1] [ug/lens] | Preservative (C14-PHMB) binding, Lens A [1] [ug/lens] | Preservative (C14-PHMB) binding, Lens B [1] [ug/lens] | C albicans log reduction (C. albicans [2]; [4]) [log] | Improvement (log reduction versus buffer control) (C. albicans [2]; [5]) | further results
C[N+](C)(C)CCO.[Cl-] [Choline Chloride] | 14.5 | 18 | 11 |  |  | Protein deposition, Average (radio-labeled lysozyme; average of lens A and B): 12 ug/lens; Protein deposition, LensA (radio-labeled lysozyme; lens A): 14 ug/lens; Protein deposition, LensB (radio-labeled lysozyme; lens B): 9 ug/lens; ug lysozyme per lens (lysozyme): 4.1 ug/lens
C[N+](C)(C)CC(=O)O [betaine HCI, Betaine HCl] | 7 | 6 | 8 | 1.37 | 0.38 | ug lysozyme per lens (lysozyme): 2.44 ug/lens
O=C(O)CN(CCO)CCO [bicine, N,N-Bis(2-hydroxyethyl)-glycline] |  |  |  |  |  | C albicans log reduction (C. albicans [3]): 0.75 log; Improvement (log reduction versus buffer control) (C. albicans [3]): 0.34
OCCN(CCO)C(CO)(CO)CO [bis-tris, Bis-(2-hydroxyethyl)imino-tns (hydroxymethyl) methane] |  |  |  |  |  | C albicans log reduction (C. albicans [2]): 1.21 log; Improvement (log reduction versus buffer control) (C. albicans [2]): 0.22
C[N+](C)(C)CC(O)CC(=O)[O-] (centres unmarked) [carnitine, Carnitine] | 11 | 9 | 13 | 1.28 | 0.29 | 
C[N+](C)(C)CCO [choline, Choline] |  |  |  | 2.24 | 1.25 | 
CN(CC(=O)O)C(=N)N [creatine, Creatine] |  |  |  | 1.72 | 0.73 | 
CN1CC(=O)NC1=N [creatinine, Creatinine] |  |  |  |  |  | C albicans log reduction (C. albicans [3]): 1.42 log; Improvement (log reduction versus buffer control) (C. albicans [3]): 1.01
O=C(O)CNC(CO)(CO)CO [tricine, N-tris(hydroxymethyl)methyl glycine] |  |  |  | 1.33 | 0.34 | 
CCN(CC)CC [triethylamine, Triethylamine] |  |  |  | 1.64 | 0.65 | 
